Data taken from patent publication US20220128542A1, “TREATMENT EFFICIENCY EVALUATION” (TX MEDIC AB, priority 2019, published 2022).

Tested on: brain of rats subjected to closed-head diffuse severe TBI (sTBI)
Experiment: HPLC of free amino acids and amino group containing compounds in brain, dose study after sTBI (Example 3)
Assay type: in vivo, rat
Excerpt: Male Wistar rats (n=160) of 300-350 g body weight were used in this study.
1994, 80: 291-300. This model causes diffuse axonal injury and it is able to reproduce the physical and mechanical characteristics of the diffuse TBI in humans.
Rats were placed prone on a bed of specific polyurethane foam inserted in a special container. This foam dissipates the major part of the potential energy (deriving from the mechanical forces) and prevents any rebound of the animal after the impact that could produce spinal damages.
These time points are coincident with the worst biochemical derangement (2 days) or, in the case of a mildly injured brain, with a full metabolic recovery (7 days).
The drug treatment consisted in a subcutaneous injection of 0.5 ml of LMW-DS (Tikomed) and administered at 3 different concentrations (1, 5 and 15 mg/kg body weight), according to the schematic protocol described below.
Sham-operated animals underwent the same procedure of anesthesia but TBI and were used as the control group.
Rats used in this study were divided into 4 groups in order to carry out a study on the efficacy of three different concentrations of LMW-DS at two different times post TBI. As subsequently specified, in each group there were animals subjected to a specific treatment for metabolic analyses and other animals intended to histo-morphological studies, according to the procedures described below.
Rats subjected to sTBI and receiving a single administration of LMW-DS after 30 minutes post-TBI, with sacrifice at 2 days post-TBI. Animals were divided in the following subgroups:
Rats subjected to sTBI and receiving a single administration of LMW-DS after 30 minutes post-TBI, with sacrifice at 7 days post-TBI. Animals were divided in the following subgroups:
Rats (n=12) subjected to sTBI and receiving repeated administrations of the maximal dose of LMW-DS (15 mg/kg b.w.) after 30 minutes, 3 days and 5 days post-TBI, with sacrifice at 7 days post-TBI. Four additional rats were used for the histo-morphological studies. Total rats in this group: n=16
To minimize metabolite loss, an in vivo craniectomy was performed in all animals during anesthesia. The rat skull was carefully removed, the brain was exposed, sharply cut along the sagittal fissure and the two hemispheres were separated. The hemispheres dedicated to biochemical analyses were freeze-clamped by aluminum tongues pre-cooled in liquid nitrogen and then immersed in liquid nitrogen. The freeze-clamping procedure was introduced to accelerate freezing of the tissue, thus minimizing potential metabolite loss.
Tissue homogenization for metabolite analyses was effected as described below. After the wet weight (w.w.) determination, the frozen hemispheres were placed into 7 ml of ice-cold, nitrogen-saturated, precipitating solution (1:10 w/v) composed by CH3CN+10 mM KH2PO4, pH 7.40, (3:1; v:v), and the homogenization was performed using an Ultra-Turrax homogenizer set at 24,000 rpm/min (Janke & Kunkel, Staufen, Germany). After centrifugation at 20,690×g, for 10 min at 4° C., the clear supernatants were saved, pellets were supplemented with an aliquot of 10 mM KH2PO4 and homogenized again as described above and saved overnight at −20° C. in order to obtain a complete recovery of aqueous phase from tissue. A second centrifugation was performed (20,690×g, for 10 min at 4° C.) and supernatants combined with those previously obtained were extracted by vigorous agitation with a double volume of HPLC-grade CHCl3 and centrifuged as above.

[1] = rats 2 days post-TBI, single 1 mg/kg b.w. 30 min after trauma
[2] = rats 2 days post-TBI, single 5 mg/kg b.w. 30 min after trauma
[3] = rats 2 days post-TBI, single 15 mg/kg b.w. 30 min after trauma
[4] = rats 7 days post-sTBI, repeated 15 mg/kg b.w.
[5] = rats 7 days post-sTBI, single 1 mg/kg b.w.
[6] = rats 7 days post-sTBI, single 5 mg/kg b.w.
[7] = rats 7 days post-sTBI, single 15 mg/kg b.w.

sodium salt of dextran sulfate [LMW-DS]
isoleucine (ILE) (2 days post-TBI): restored
osmolyte and aromatic free amino acids (2 days post-TBI): No remarkable effects
methionine (2 days post-TBI, any dose tested): Restoration
TAU concentrations (7 days after injury): normalized
L-Cystathionine (L-Cystat) (7 days post impact, highest dose, single or repeat): significant increase
GLU (7 days post injury, 15 mg/kg b.w. single or repeat): normalization
ARG concentration in brain homogenate [1]: 0.13 ± 0.03 nmol/g w.w.
ASN concentration in brain homogenate [1]: 0.13 ± 0.02 µmol/g w.w.
ASP concentration in brain homogenate [1]: 4.17 ± 0.99 nmol/g w.w.
GABA concentration in brain homogenate [1]: 1.87 ± 0.17 µmol/g w.w.
GLN concentration in brain homogenate [1]: 4.37 ± 0.59 µmol/g w.w.
GLU concentration in brain homogenate [1]: 12.5 ± 0.91 µmol/g w.w.
GLY concentration in brain homogenate [1]: 1.35 ± 0.26 nmol/g w.w.
LYS concentration in brain homogenate [1]: 0.29 ± 0.11 µmol/g w.w.
MET concentration in brain homogenate [1]: 0.04 ± 0.01 µmol/g w.w.
ORN concentration in brain homogenate [1]: 0.02 ± 0.01 µmol/g w.w.
SAH concentration in brain homogenate [1]: 0.07 ± 0.02 nmol/g w.w.
TAU concentration in brain homogenate [1]: 4.98 ± 0.47 nmol/g w.w.
THR concentration in brain homogenate [1]: 0.70 ± 0.15 nmol/g w.w.
TRP concentration in brain homogenate [1]: 0.02 ± 0.01 µmol/g w.w.
TYR concentration in brain homogenate [1]: 0.18 ± 0.03 nmol/g w.w.
VAL concentration in brain homogenate [1]: 0.07 ± 0.03 µmol/g w.w.
ARG concentration in brain homogenate [2]: 0.13 ± 0.03 nmol/g w.w.
ASP concentration in brain homogenate [2]: 4.15 ± 0.95 nmol/g w.w.
GABA concentration in brain homogenate [2]: 1.99 ± 0.18 µmol/g w.w.
GLN concentration in brain homogenate [2]: 4.55 ± 0.44 µmol/g w.w.
GLY concentration in brain homogenate [2]: 1.43 ± 0.28 nmol/g w.w.
L-Cystat concentration in brain homogenate [2]: 0.31 ± 0.06 µmol/g w.w.
LYS concentration in brain homogenate [2]: 0.37 ± 0.14 µmol/g w.w.
ORN concentration in brain homogenate [2]: 0.01 ± 0.01 µmol/g w.w.
SAH concentration in brain homogenate [2]: 0.07 ± 0.02 nmol/g w.w.
TAU concentration in brain homogenate [2]: 5.15 ± 0.49 nmol/g w.w.
THR concentration in brain homogenate [2]: 0.77 ± 0.17 nmol/g w.w.
TRP concentration in brain homogenate [2]: 0.03 ± 0.01 µmol/g w.w.
TYR concentration in brain homogenate [2]: 0.20 ± 0.03 nmol/g w.w.
VAL concentration in brain homogenate [2]: 0.08 ± 0.03 µmol/g w.w.
ARG concentration in brain homogenate [3]: 0.16 ± 0.04 nmol/g w.w.
ASP concentration in brain homogenate [3]: 3.05 ± 0.42 nmol/g w.w.
GLN concentration in brain homogenate [3]: 4.21 ± 0.51 µmol/g w.w.
GLY concentration in brain homogenate [3]: 1.18 ± 0.23 nmol/g w.w.
LEU concentration in brain homogenate [3]: 0.04 ± 0.01 µmol/g w.w.
LYS concentration in brain homogenate [3]: 0.32 ± 0.12 µmol/g w.w.
MET concentration in brain homogenate [3]: 0.03 ± 0.01 µmol/g w.w.
ORN concentration in brain homogenate [3]: 0.02 ± 0.01 µmol/g w.w.
SAH concentration in brain homogenate [3]: 0.06 ± 0.02 nmol/g w.w.
TAU concentration in brain homogenate [3]: 4.59 ± 0.43 nmol/g w.w.
THR concentration in brain homogenate [3]: 0.61 ± 0.13 nmol/g w.w.
TYR concentration in brain homogenate [3]: 0.17 ± 0.03 nmol/g w.w.
VAL concentration in brain homogenate [3]: 0.06 ± 0.03 µmol/g w.w.
ALA concentration in brain homogenate [4]: 0.47 ± 0.05 µmol/g w.w.
ASN concentration in brain homogenate [4]: 0.1 ± 0.02 µmol/g w.w.
ASP concentration in brain homogenate [4]: 2.42 ± 0.39 nmol/g w.w.
CITR concentration in brain homogenate [4]: 0.03 ± 0.01 µmol/g w.w.
GABA concentration in brain homogenate [4]: 1.38 ± 0.14 µmol/g w.w.
GLN concentration in brain homogenate [4]: 3.88 ± 0.4 µmol/g w.w.
GLY concentration in brain homogenate [4]: 0.78 ± 0.10 nmol/g w.w.
HYS concentration in brain homogenate [4]: 0.06 ± 0.01 µmol/g w.w.
ILE concentration in brain homogenate [4]: 0.03 ± 0.01 µmol/g w.w.
LEU concentration in brain homogenate [4]: 0.04 ± 0.01 µmol/g w.w.
LYS concentration in brain homogenate [4]: 0.23 ± 0.07 µmol/g w.w.
ORN concentration in brain homogenate [4]: 0.02 ± 0.01 µmol/g w.w.
SAH concentration in brain homogenate [4]: 0.04 ± 0.04 nmol/g w.w.
TAU concentration in brain homogenate [4]: 3.47 ± 0.44 nmol/g w.w.
THR concentration in brain homogenate [4]: 0.77 ± 0.14 nmol/g w.w.
TYR concentration in brain homogenate [4]: 0.14 ± 0.02 nmol/g w.w.
VAL concentration in brain homogenate [4]: 0.07 ± 0.01 µmol/g w.w.
ALA concentration in brain homogenate [5]: 0.57 ± 0.06 µmol/g w.w.
ARG concentration in brain homogenate [5]: 0.13 ± 0.02 nmol/g w.w.
ASN concentration in brain homogenate [5]: 0.1 ± 0.02 µmol/g w.w.
ASP concentration in brain homogenate [5]: 4.17 ± 0.67 nmol/g w.w.
CITR concentration in brain homogenate [5]: 0.03 ± 0.01 µmol/g w.w.
GABA concentration in brain homogenate [5]: 1.73 ± 0.18 µmol/g w.w.
GLN concentration in brain homogenate [5]: 4.1 ± 0.42 µmol/g w.w.
GLU concentration in brain homogenate [5]: 12.1 ± 1.02 µmol/g w.w.
GLY concentration in brain homogenate [5]: 0.98 ± 0.20 nmol/g w.w.
HYS concentration in brain homogenate [5]: 0.06 ± 0.01 µmol/g w.w.
L-Cystat concentration in brain homogenate [5]: 0.24 ± 0.04 µmol/g w.w.
LYS concentration in brain homogenate [5]: 0.19 ± 0.06 µmol/g w.w.
MET concentration in brain homogenate [5]: 0.03 ± 0.01 µmol/g w.w.
ORN concentration in brain homogenate [5]: 0.01 ± 0.01 µmol/g w.w.
SAH concentration in brain homogenate [5]: 0.04 ± 0.01 nmol/g w.w.
SER concentration in brain homogenate [5]: 0.92 ± 0.16 µmol/g w.w.
TAU concentration in brain homogenate [5]: 4.02 ± 0.51 nmol/g w.w.
THR concentration in brain homogenate [5]: 0.71 ± 0.12 nmol/g w.w.
TYR concentration in brain homogenate [5]: 0.13 ± 0.02 nmol/g w.w.
VAL concentration in brain homogenate [5]: 0.08 ± 0.01 µmol/g w.w.
ALA concentration in brain homogenate [6]: 0.44 ± 0.05 µmol/g w.w.
ARG concentration in brain homogenate [6]: 0.15 ± 0.02 nmol/g w.w.
ASN concentration in brain homogenate [6]: 0.1 ± 0.02 µmol/g w.w.
ASP concentration in brain homogenate [6]: 3.63 ± 0.59 nmol/g w.w.
CITR concentration in brain homogenate [6]: 0.03 ± 0.01 µmol/g w.w.
GLN concentration in brain homogenate [6]: 3.86 ± 0.4 µmol/g w.w.
GLU concentration in brain homogenate [6]: 11.8 ± 0.99 µmol/g w.w.
GLY concentration in brain homogenate [6]: 0.88 ± 0.15 nmol/g w.w.
HYS concentration in brain homogenate [6]: 0.06 ± 0.01 µmol/g w.w.
L-Cystat concentration in brain homogenate [6]: 0.26 ± 0.04 µmol/g w.w.
LYS concentration in brain homogenate [6]: 0.21 ± 0.04 µmol/g w.w.
MET concentration in brain homogenate [6]: 0.04 ± 0.01 µmol/g w.w.
TAU concentration in brain homogenate [6]: 3.51 ± 0.44 nmol/g w.w.
THR concentration in brain homogenate [6]: 0.71 ± 0.15 nmol/g w.w.
TRP concentration in brain homogenate [6]: 0.02 ± 0.01 µmol/g w.w.
TYR concentration in brain homogenate [6]: 0.13 ± 0.02 nmol/g w.w.
VAL concentration in brain homogenate [6]: 0.08 ± 0.01 µmol/g w.w.
ALA concentration in brain homogenate [7]: 0.38 ± 0.04 µmol/g w.w.
ARG concentration in brain homogenate [7]: 0.14 ± 0.02 nmol/g w.w.
ASN concentration in brain homogenate [7]: 0.1 ± 0.02 µmol/g w.w.
CITR concentration in brain homogenate [7]: 0.03 ± 0.01 µmol/g w.w.
GABA concentration in brain homogenate [7]: 1.43 ± 0.15 µmol/g w.w.
GLN concentration in brain homogenate [7]: 3.73 ± 0.38 µmol/g w.w.
GLU concentration in brain homogenate [7]: 10.2 ± 0.86 µmol/g w.w.
GLY concentration in brain homogenate [7]: 0.78 ± 0.12 nmol/g w.w.
HYS concentration in brain homogenate [7]: 0.06 ± 0.01 µmol/g w.w.
L-Cystat concentration in brain homogenate [7]: 0.25 ± 0.04 µmol/g w.w.
LYS concentration in brain homogenate [7]: 0.21 µmol/g w.w.
MET concentration in brain homogenate [7]: 0.04 ± 0.01 µmol/g w.w.
SAH concentration in brain homogenate [7]: 0.04 ± 0.01 nmol/g w.w.
SER concentration in brain homogenate [7]: 0.76 ± 0.12 µmol/g w.w.
TAU concentration in brain homogenate [7]: 3.38 ± 0.44 nmol/g w.w.
THR concentration in brain homogenate [7]: 0.72 ± 0.14 nmol/g w.w.
TYR concentration in brain homogenate [7]: 0.14 ± 0.02 nmol/g w.w.
